Assay results from US20080269259A1, “Regulation of Autophagy and Cell Survival” (THE TRUSTEES OF THE UNIVERSITY OF PENNSYLVANIA, priority 2005, published 2008).

How the values were obtained:
Myc/p53ER^TAM lymphomas [1] = assay: Myc/p53ER^TAM lymphoma tumor growth, regression and recurrence in syngeneic mice; type: in vivo
Protocol: All experiments were performed in accordance with approved animal safety protocols. All experiments were carried out using 8-10 week old C57BL/6X129F1 mice obtained from The Jackson Laboratory (Bar Harbor, Me.). Bone marrow cell harvest and production of bone marrow-derived neoplasms followed the protocol previously described. After primary tumor formation, tumor cells were harvested in ice cold PBS by passage through a […] nylon mesh (BD Bioscience, Bedford, Md.) and expanded in vivo by subcutaneous injection into the flanks of syngeneic mice. For tissue analysis, all animals were sacrificed individually by CO2 asphyxiation and tissue was harvested immediately. Tumors were harvested in ice cold PBS. For each tumor, sections of visually viable tumor tissue were fixed in 10% formalin for preparation of paraffin-embedded sections, glutaraldehyde for electron microscopy (see below). Tumor cell lysates were achieved through manual agitation of remaining tumor tissue in RIPA buffer.
(§1) For tamoxifen (TAM) treatment, the hormone powder (Sigma, St. Louis) was dispersed, via sonication, in peanut oil (Sigma) at a concentration of 10 mg/mL. The administration of TAM was done via daily IP injections at the dose of 1 mg per mouse.
(§2) 4-hydroxytamoxifen (hTAM) (Sigma) was dissolved in ethanol. Cyclophosphamide (Sigma) was dissolved in PBS. Tumors were measured on a daily basis using calipers and tumor volume was calculated using the formula: (mm^3)=AxBx[A+B]/2

Bax^−/−Bak^−/− cells [2] = assay: ATP levels in growth factor-deprived cells; type: cell-based, mice; conditions: IL-3 deprived cells; for ATP levels: 8 hours after addition of drug
Protocol: The conversion of 5-^3H-glucose to ^3H2O was used to measure the glycolytic rate. The level of ATP was measured as described previously.

Bax^−/−Bak^−/− cells [3] = assay: Viability of IL-3 dependent Bax−/−Bak−/− cells (propidium iodide exclusion); type: cell-based, mice; conditions: for effect on survival of cells grown in the presence of IL-3 / death of the cells in the cultures: 5 mM 3-MA or 10 μM CQ; for effect on survival of cells grown in the presence of IL-3: IL-3 present; for death of the cells in the cultures: by 48 hours, cells deprived of growth factor for 6 weeks
Protocol: Immortalized IL-3 dependent cells were obtained from the bone marrow of two independent Bax^−/−Bak^−/− mice using previously established protocols. Subsequent experiments using these cells were performed in complete media consisting of: RPMI 1640 medium (Invitrogen) supplemented with 10% heat inactivated fetal bovine serum (Gemini), 10 units/mL penicillin/streptomycin and 2 mM L-glutamine (Invitrogen), 50 μm β-mercaptoethanol (Sigma) and 10 mM HEPES (Invitrogen). For cells grown in the presence of IL-3, the complete medium was supplemented with 3.5 ng/mL of murine recombinant IL-3 (BD Pharmingen). For IL-3 withdrawal experiments, cells were washed three times in medium without IL-3 and serum. After the final wash, cells were resuspended in complete medium without IL-3. Medium for cells cultured in the absence of IL-3 was replaced with fresh complete medium without IL-3 every 10 days. […] Cell size and number was assessed by using a Coulter Z2 particle analyzer. For readdition experiments, cells grown in the absence of IL-3 at the indicated time points were pelleted by centrifugation and resuspended in complete media containing 3.5 ng/mL IL-3. The FL5.12 cell line was maintained in complete media supplemented with 0.35 ng/mL IL-3. For measurement of mitochondrial membrane potential, cells were incubated for 30 minutes with 50 nM of tetramethyl rhodamine ethyl ester (TMRE; Molecular Probes) in the presence or absence of 50 μM CCCP (Sigma). Viability was performed by incubating cells with annexin V conjugated fluorescein isothiocyanate (BD Pharmingen) in buffer containing 1 μg/mL propidium iodide (Molecular Probes) followed by FACS analysis. DNA fragmentation assay was performed as previously described.

[4] = system: Myc/p53ER^TAM/GFP-LC3 cells; assay: GFP-LC3 fluorescence imaging; type: cell-based, mice; conditions: hTAM 250 mM, CQ 5 pM as printed; 48 hours
Protocol: For GFP-LC3 fluorescence imaging, Myc/p53ER^TAM/IGFP-LC3 cells (see below) were exposed to the indicated treatments and fixed with 4% paraformaldehyde for 30 minutes at room temperature, washed three times and centrifuged onto slides. DAPI counterstain was used to identify cells with intact nuclei. All fluorescence imaging was performed and digitally captured at 100× magnification on a Nikon Eclipse E800 fluorescent microscope.

Myc/p53ER^TAM lymphomas [5] = assay: Electron microscopy and quantification of autophagosomes in tumors; type: in vivo, mice; conditions: 24 hours after initiation of TAM/PBS compared to 48 hours of PBS alone; p<0.0005
Description: Cells were postfixed with 2% osmium tetroxide followed by an increasing gradient dehydration step using ethanol and propylene oxide. […] Data is presented as mean ±SD.

cleaved caspase 3 = assay: Western blot of cleaved caspase 3 in tumor lysates; type: in vivo, mice; conditions: lysates obtained at 48 hours; data not shown
Description: Cultured cells were lysed in RIPA buffer. Tumor lysates were obtained by manual agitation of tumor tissue and lysis in RIPA. Lysates were standardized for protein content and resolved by SDS-PAGE on 14% NuPAGE gels (Invitrogen, St Louis, Mo.). Nitrocellulose blots were probed with antibodies against cleaved caspase 3 (rabbit monoclonal antibody; […]) (Cell Signaling, Beverly, Mass.); anti-actin (mouse monoclonal antibody; 1:10,000) (Sigma, St. Louis, Mo.); anti-ATG5 (rabbit polyclonal antibody; 1:2000) (gift from N. Mizushima).

[6] = Observed toxicity in treated tumor-bearing mice
Protocol: as §1, §2

LC3 = LC3 immunofluorescence staining of autophagosomes; type: cell-based, mice; conditions: cells without IL-3 for 6 weeks, 18 hours of 5 mM 3-MA or 10 μM CQ
Protocol: Antibodies (all 1:1000 dilution) used were: GLUT1 (Research Diagnostic Inc.), calreticulin (StressGen), STAT3 (Cell Signalling), actin (Sigma), LC3 (gift from T. Yoshimori), ATG5 (gift from N. Mizushima), Bax (Santa Cruz) and Bak (Upstate Technologies). For immunofluorescence staining, cells were fixed in 4% paraformaldehyde and permeabilized with 0.1% Triton X-100, washed 3 times (PBS containing 0.01% Triton X-100 and 10% FBS), followed by incubation with […]. […] Images were captured using a Zeiss 510 confocal microscope. For surface analysis, cells were fixed in 4% paraformaldehyde, stained with 1:100 biotin-anti-IL-3 alpha chain receptor (BD Pharmingen) and a 1:100 dilution of streptavidin conjugated fluorescein isothiocyanate (BD Pharmingen) followed by FACS analysis.

[7] = system: Myc/p53ER^TAM lymphoma cells; assay: In vitro growth of Myc/p53ER^TAM lymphoma cells (cell number); type: cell-based, mice; conditions: Mus musculus, 96 h; cell number measured on day 4, medium changed daily, single agent; read-out: IC50, impairment of lymphoma cell growth
Description: For all in vitro experiments media+supplements and drugs treatments were changed daily.

Compound: O=P1(N(CCCl)CCCl)NCCCO1 (centres unmarked) [cyclophosphamide]
- average time to tumor recurrence (Myc/p53ER^TAM lymphomas [1]; cyclophosphamide 50 mg/kg IP once followed by daily PBS): 5.25 ± 1.9 days
- tumor regression (Myc/p53ER^TAM lymphomas [1]; single dose cyclophosphamide 50 mg/kg IP with or without CQ): complete tumor regression in all treated mice

Compound: COC(=O)C(C)=O [methyl pyruvate]
- effect on ATP decline caused by 3-MA or CQ (Bax^−/−Bak^−/− cells [2]; 10 mM MP, 8 hours): could be suppressed
- effect on death observed in response to 3-MA and CQ (Bax^−/−Bak^−/− cells [3]; 10 mM methyl pyruvate added at the time of 3-MA or CQ treatment, IL-3 deprived 6 weeks): suppressed the death

Compound: 4-hydroxytamoxifen [hTAM]
- punctate GFP-LC3 fluorescence [4]: increased number of punctate LC3 associated vesicles

Compound: CC/C(=C(\c1ccccc1)c1ccc(OCCN(C)C)cc1)c1ccccc1 [TAM/PBS, tamoxifen]
- increase of percentage of tumor cells with autophagosomes (Myc/p53ER^TAM lymphomas [5]): 30 fold
- mice with complete clinical regression of their tumor (Myc/p53ER^TAM lymphomas [1]; TAM/CQ and TAM/HCQ pooled in one figure, p<0.005): 8%
- cleaved caspase 3 in tumor lysates (cleaved caspase 3): absent

Compound: CCN(CC)CCCC(C)Nc1ccnc2cc(Cl)ccc12 (centres unmarked) [CQ, chloroquine]
- ATP levels (Bax^−/−Bak^−/− cells [2]): dramatic decline in ATP levels
- additional toxicity in treated animals ([6]; CQ cotreatment with TAM or with cyclophosphamide): did not result in additional toxicity
- observed toxicity ([6]; daily IP 50 mg/kg/day or 60 mg/kg/day): no observed toxicity
- tolerability of systemic administration ([6]; for up to 20 days): well tolerated
- punctate GFP-LC3 fluorescence [4]: Some punctate GFP-LC3 fluorescence
- tumor regression (Myc/p53ER^TAM lymphomas [1]; CQ 50 or 60 mg/kg/day IP daily, single agent): not observed
- average time to tumor recurrence (Myc/p53ER^TAM lymphomas [1]; cyclophosphamide 50 mg/kg IP once followed by daily CQ 60 mg/kg/day IP for 13 days): 12.5 ± 6.6 days
- number of autophagosomes (LC3 redistribution from punctate to diffuse staining) (LC3): reduction in the number of autophagosomes
- IC50 [7]: 3000 nM
- effect on survival of cells grown in the presence of IL-3 (Bax^−/−Bak^−/− cells [3]): no significant effect
- death of the cells in the cultures (Bax^−/−Bak^−/− cells [3]): 82%

Compound: Cn1cnc(N)c2ncnc1-2 [3-MA, 3-methyladenine]
- ATP levels (Bax^−/−Bak^−/− cells [2]): dramatic decline in ATP levels
- number of autophagosomes (LC3 redistribution from punctate to diffuse staining) (LC3): reduction in the number of autophagosomes
- effect on survival of cells grown in the presence of IL-3 (Bax^−/−Bak^−/− cells [3]): no significant effect
- death of the cells in the cultures (Bax^−/−Bak^−/− cells [3]): 72%
